Data on 7 compounds can be found in ChEMBL document CHEMBL5465560, “Selectivity Literature for EUbOPEN Chemogenomic Library” (2024).

For assay [1], the target named is T1, Tyrosine-protein kinase Mer (Homo sapiens) (UniProt Q12866).
T1 sequence (whole entry): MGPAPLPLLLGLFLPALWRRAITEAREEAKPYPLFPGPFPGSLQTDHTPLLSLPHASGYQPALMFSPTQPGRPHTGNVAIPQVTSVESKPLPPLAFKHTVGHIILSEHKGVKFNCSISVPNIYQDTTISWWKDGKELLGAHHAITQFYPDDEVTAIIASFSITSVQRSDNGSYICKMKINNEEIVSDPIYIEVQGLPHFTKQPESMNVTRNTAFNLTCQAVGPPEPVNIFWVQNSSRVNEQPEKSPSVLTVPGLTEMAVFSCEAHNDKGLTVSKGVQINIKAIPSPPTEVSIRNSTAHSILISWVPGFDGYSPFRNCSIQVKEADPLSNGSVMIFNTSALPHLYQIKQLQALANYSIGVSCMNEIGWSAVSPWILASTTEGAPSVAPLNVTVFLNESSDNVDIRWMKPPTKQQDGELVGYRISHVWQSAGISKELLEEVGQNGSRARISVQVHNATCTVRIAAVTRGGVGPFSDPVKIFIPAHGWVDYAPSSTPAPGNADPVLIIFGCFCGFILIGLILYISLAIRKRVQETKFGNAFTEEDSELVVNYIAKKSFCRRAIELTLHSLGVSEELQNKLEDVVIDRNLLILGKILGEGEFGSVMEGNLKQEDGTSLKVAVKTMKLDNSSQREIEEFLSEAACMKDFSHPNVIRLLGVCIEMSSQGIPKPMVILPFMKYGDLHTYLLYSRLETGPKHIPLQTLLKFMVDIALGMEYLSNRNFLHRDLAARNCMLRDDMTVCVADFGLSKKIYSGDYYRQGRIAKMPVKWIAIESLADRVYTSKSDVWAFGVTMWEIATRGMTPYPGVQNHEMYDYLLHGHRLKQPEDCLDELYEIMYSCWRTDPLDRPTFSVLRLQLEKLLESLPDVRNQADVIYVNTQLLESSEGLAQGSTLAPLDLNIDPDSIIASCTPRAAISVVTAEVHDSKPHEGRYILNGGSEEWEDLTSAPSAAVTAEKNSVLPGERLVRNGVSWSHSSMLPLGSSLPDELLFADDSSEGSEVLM
The assay can be described thus: Selectivity interaction (ProQinase) EUB0000171b MERTK.

Assay [2] addresses T2, Serine/threonine-protein kinase ULK1 (Homo sapiens) (UniProt O75385).
T2 sequence (whole entry): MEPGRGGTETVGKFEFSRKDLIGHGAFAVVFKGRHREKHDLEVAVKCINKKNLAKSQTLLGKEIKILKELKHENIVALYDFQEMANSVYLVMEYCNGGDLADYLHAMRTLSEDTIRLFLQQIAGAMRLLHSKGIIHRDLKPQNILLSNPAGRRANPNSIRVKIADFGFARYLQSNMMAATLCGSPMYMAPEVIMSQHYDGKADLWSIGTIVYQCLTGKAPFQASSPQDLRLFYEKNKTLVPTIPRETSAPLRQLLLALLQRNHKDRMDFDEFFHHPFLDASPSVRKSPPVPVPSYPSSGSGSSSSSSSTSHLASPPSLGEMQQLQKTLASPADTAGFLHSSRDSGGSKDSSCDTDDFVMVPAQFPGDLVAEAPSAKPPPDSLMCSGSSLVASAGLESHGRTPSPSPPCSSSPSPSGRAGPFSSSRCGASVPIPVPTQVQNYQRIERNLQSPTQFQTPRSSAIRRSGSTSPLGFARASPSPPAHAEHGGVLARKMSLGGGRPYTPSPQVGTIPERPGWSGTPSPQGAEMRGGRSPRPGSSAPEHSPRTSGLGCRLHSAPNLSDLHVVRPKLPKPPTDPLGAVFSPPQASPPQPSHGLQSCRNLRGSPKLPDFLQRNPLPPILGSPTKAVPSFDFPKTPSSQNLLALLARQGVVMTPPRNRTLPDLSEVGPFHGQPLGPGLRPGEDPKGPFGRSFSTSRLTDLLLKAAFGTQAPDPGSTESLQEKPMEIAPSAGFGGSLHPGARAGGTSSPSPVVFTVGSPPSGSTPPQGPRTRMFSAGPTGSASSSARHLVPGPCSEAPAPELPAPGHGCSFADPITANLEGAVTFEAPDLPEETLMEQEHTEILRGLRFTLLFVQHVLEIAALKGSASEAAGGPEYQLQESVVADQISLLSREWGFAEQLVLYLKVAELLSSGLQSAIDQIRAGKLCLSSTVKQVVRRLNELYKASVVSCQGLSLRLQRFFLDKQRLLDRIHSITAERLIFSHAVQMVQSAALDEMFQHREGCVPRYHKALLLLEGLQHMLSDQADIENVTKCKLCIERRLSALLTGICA
The experiment in a line: Selectivity interaction (KinomeScan (DiscoverX)) EUB0000092b ULK1. Particulars: at 10 µM.

For assay [3], the target named is Sodium channel protein type 2 subunit alpha (Homo sapiens) (UniProt Q99250). The experiment in a line: Selectivity interaction (Eurofins CEREP Diversity Profile (receptors and ion channels)) EUB0000279b SCN2A. Particulars: at 10 µM.
Sequence of Sodium channel protein type 2 subunit alpha (Homo sapiens) (Q99250 whole entry, looked up): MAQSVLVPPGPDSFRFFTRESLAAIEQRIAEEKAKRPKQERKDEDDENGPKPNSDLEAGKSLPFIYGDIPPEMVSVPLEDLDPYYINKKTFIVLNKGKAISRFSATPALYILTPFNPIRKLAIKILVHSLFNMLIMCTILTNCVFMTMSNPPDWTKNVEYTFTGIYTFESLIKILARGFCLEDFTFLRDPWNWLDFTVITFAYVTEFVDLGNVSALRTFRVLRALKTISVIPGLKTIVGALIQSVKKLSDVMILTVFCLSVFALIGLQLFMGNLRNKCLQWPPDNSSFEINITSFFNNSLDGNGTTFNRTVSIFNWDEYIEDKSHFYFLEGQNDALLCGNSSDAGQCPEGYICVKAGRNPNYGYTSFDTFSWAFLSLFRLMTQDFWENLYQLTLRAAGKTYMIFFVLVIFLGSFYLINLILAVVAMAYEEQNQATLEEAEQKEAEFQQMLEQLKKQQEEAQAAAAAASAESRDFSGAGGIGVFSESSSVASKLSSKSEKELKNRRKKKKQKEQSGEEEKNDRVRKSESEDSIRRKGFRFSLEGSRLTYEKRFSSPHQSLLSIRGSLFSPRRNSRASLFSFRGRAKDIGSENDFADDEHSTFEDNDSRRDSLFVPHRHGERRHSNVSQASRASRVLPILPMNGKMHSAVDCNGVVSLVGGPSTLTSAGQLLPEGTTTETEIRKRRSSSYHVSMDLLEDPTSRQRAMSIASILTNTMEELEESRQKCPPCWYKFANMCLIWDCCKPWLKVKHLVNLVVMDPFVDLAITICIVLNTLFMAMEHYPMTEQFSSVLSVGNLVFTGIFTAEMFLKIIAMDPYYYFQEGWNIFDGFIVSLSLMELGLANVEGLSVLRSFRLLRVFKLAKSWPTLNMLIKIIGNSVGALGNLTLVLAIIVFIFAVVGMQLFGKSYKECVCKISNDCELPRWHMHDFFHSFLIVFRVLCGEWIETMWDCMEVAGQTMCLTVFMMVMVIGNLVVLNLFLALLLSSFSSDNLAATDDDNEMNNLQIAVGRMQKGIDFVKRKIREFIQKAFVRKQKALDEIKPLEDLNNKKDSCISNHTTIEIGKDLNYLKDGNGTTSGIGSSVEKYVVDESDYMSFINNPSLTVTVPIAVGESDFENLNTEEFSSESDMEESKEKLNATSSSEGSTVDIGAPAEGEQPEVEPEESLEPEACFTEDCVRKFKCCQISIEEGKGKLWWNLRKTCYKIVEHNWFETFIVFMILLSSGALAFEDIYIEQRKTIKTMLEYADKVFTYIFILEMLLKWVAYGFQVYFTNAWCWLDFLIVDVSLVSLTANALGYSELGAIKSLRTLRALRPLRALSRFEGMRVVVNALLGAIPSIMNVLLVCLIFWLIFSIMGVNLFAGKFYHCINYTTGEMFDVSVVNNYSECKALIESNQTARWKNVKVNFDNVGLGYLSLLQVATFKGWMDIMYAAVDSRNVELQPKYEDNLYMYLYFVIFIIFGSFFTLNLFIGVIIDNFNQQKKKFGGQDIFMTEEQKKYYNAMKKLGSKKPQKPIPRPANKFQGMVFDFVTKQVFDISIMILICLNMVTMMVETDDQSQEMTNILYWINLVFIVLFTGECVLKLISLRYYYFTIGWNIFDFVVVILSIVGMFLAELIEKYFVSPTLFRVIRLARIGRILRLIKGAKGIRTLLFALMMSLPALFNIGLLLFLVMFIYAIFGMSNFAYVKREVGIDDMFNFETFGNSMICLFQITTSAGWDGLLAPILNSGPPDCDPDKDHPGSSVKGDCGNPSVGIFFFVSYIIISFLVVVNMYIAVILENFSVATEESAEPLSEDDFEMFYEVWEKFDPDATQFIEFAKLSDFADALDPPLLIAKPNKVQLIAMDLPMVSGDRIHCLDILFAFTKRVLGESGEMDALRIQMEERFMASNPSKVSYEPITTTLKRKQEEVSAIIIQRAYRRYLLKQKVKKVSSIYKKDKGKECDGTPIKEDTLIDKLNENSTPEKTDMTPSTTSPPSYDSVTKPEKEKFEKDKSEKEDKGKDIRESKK
Assay [4] addresses T3, Interleukin-1 receptor-associated kinase 3 (Homo sapiens) (UniProt Q9Y616).
T3 sequence (whole entry): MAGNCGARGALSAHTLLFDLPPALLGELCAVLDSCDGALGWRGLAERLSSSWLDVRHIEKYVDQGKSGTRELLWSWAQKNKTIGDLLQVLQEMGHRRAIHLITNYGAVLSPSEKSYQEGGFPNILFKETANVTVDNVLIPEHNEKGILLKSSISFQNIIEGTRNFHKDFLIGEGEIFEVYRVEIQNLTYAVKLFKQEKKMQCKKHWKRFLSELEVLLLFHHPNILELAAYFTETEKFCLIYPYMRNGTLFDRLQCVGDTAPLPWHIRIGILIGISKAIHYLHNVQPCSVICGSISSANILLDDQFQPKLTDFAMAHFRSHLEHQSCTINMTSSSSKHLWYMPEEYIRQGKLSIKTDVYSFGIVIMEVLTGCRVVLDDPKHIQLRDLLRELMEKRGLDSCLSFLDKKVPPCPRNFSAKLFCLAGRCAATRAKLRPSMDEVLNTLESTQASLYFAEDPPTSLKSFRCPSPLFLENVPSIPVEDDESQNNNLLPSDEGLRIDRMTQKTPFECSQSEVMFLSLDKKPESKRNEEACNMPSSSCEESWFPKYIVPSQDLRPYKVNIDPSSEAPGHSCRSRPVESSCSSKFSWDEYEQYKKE
The experiment in a line: Selectivity interaction (KinomeScan (DiscoverX)) EUB0000045b IRAK3.

Assay [5] has as its target Serine/threonine-protein kinase N2 (Homo sapiens, UniProt Q16513). The experiment in a line: Selectivity interaction (KinomeScan (DiscoverX)) EUB0000666a PKN2. The conditions noted are these: at 10 µM.
A further assay concerns the target Misshapen-like kinase 1 (Homo sapiens, UniProt Q8N4C8). The experiment in a line: Selectivity interaction (KinomeScan (DiscoverX)) EUB0000229b MINK1. The conditions noted are these: at 10 µM.
The target in assay [6] is Tyrosine-protein kinase HCK (Homo sapiens) (UniProt P08631). The assay can be described thus: Selectivity interaction (ActivX KiNativ screen (ex vivo kinase selectivity in human PBMCs)) EUB0001619a HCK. It counts as cell-based. The conditions noted are these: PBMC, at 1 µM.
Sequence of Tyrosine-protein kinase HCK (Homo sapiens) (P08631 2-526 limits assumed): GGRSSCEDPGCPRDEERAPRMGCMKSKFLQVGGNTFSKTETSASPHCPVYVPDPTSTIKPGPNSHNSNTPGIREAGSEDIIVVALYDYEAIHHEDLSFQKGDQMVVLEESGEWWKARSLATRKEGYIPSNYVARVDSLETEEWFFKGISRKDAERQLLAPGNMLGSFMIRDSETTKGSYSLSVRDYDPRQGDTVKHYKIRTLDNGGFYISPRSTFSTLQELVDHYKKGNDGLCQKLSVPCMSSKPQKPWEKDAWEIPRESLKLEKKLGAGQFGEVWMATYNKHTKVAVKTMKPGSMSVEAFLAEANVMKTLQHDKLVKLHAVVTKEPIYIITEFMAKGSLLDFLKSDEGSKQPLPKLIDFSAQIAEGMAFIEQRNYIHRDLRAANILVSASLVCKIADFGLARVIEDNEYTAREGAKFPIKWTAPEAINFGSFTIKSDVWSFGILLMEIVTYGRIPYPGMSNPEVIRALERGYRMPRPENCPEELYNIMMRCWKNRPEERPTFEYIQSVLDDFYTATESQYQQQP

Sequence of Serine/threonine-protein kinase N2 (Q16513 whole entry, looked up): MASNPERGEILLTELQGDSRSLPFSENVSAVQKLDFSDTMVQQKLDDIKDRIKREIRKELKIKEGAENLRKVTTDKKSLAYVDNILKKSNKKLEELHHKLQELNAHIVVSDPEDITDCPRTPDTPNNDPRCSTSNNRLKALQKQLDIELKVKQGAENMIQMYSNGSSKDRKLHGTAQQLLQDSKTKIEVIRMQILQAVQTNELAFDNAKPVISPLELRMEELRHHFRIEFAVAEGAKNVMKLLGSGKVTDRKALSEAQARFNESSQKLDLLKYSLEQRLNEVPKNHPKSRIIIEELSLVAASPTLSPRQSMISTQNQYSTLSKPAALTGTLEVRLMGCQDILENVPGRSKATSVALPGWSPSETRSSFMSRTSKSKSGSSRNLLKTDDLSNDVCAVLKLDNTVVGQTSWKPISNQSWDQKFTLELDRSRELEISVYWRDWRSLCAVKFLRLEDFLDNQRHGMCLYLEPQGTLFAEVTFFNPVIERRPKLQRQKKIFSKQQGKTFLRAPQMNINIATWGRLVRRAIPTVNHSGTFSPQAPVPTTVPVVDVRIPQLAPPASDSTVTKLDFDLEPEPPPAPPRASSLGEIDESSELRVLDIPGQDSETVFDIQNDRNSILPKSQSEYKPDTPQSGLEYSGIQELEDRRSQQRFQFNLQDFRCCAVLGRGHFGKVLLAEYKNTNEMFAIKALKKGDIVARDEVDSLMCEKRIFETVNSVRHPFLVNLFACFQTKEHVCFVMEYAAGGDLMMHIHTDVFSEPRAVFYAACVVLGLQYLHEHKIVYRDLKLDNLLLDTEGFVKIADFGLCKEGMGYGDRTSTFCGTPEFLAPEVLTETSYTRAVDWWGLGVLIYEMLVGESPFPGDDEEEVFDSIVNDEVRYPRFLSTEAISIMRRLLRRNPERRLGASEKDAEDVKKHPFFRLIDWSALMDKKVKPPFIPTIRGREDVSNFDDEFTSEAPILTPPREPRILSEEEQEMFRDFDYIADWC
Sequence of Misshapen-like kinase 1 (Q8N4C8 whole entry, looked up): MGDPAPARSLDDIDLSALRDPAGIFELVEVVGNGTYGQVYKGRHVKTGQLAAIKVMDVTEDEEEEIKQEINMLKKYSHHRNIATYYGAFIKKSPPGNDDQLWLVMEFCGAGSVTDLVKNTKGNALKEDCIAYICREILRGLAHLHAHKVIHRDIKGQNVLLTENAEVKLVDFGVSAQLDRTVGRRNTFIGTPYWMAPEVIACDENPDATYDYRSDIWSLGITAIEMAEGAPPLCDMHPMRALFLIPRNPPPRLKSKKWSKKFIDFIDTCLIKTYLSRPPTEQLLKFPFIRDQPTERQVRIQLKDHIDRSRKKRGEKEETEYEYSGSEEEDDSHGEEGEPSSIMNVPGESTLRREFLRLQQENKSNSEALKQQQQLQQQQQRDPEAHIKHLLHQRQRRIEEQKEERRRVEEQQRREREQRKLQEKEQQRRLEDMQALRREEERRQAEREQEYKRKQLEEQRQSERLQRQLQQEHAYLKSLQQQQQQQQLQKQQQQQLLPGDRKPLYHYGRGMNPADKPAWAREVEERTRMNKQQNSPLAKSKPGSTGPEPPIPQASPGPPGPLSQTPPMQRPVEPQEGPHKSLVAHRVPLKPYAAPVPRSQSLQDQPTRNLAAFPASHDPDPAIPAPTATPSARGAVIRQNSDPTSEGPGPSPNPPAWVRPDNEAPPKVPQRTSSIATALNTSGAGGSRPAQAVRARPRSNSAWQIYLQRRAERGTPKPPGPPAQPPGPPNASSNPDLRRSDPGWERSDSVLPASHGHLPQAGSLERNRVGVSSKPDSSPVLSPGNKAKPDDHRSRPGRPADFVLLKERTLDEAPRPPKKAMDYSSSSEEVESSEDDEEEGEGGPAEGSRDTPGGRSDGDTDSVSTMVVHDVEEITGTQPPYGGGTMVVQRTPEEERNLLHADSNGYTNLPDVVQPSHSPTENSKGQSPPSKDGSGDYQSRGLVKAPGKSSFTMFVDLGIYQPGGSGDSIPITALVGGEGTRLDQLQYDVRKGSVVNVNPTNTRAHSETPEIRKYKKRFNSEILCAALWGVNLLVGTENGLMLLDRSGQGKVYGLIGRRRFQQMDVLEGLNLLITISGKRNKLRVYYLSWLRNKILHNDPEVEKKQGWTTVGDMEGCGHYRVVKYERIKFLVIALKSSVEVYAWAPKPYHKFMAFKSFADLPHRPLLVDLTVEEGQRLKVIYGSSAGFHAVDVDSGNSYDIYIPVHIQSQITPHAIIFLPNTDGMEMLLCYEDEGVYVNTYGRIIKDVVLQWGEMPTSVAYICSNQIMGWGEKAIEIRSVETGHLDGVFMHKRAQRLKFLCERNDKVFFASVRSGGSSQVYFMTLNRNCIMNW

As for `C=CC(=O)Nc1cccc(C(=O)Nc2ccc(Nc3cc(-c4[nH]c(SC)nc4C)ccn3)cc2)c1`, the % of control in assay [1] (at 1 µM) was determined as 76%; in assay [1] (at 5 µM), 41%. Turning to `CCC(=O)N1CCN(c2ccc(-n3c(=O)ccc4cnc5ccc(-c6cnc7ccccc7c6)cc5c43)cc2C(F)(F)F)CC1`, the % of control in assay [2] turned out to be 100%. `CC(=O)c1cc(-c2ccccc2OCC2CC2)c2ncccn12` returned a % of control in assay [3] of 100%.

As to `C=CC(=O)Nc1cc(-n2c(=O)ccc3cnc4ccc(-c5ccc(NS(C)(=O)=O)cc5)cc4c32)ccc1C`, the % of control came to 73% in assay [4] (at 1 µM) and 34% in assay [4] (at 10 µM). On to `O=C(NOC[C@H](O)CO)c1ccc(F)c(F)c1Nc1ccc(I)cc1F`, for which the % of control in assay [5] came to 100%. In turn, `COc1cc(N(C)c2ccnc3ccc(C(F)(F)F)cc23)cc(OC)c1OC` gave a % binding at Misshapen-like kinase 1 of 68%.

In assay [6], `N#Cc1cccc(-c2c[nH]c3ncnc(N4CCOCC4)c23)c1` yielded a % of inhibition of 21%.
